# Data: ChEMBL document CHEMBL5058646 (2022)
# Legend:
# [1] = molecular target: Cyclin-dependent kinase 16 (Homo sapiens) (UniProt Q00536); assay: PCTK1 SGC Tm panel (DSF); conditions: Compound concentration 20.0 uM
# [2] = molecular target: Serine/threonine-protein kinase 17B (Homo sapiens) (UniProt O94768); assay: STK17B SGC Tm panel (DSF); conditions: Compound concentration 20.0 uM
# [3] = molecular target: Histamine H4 receptor (Homo sapiens) (UniProt Q9H3N8); conditions: Compound concentration 10.0 uM
# [4] = molecular target: Calcium/calmodulin-dependent protein kinase type II subunit delta (Homo sapiens) (UniProt Q13557); assay: CAMK2D SGC Tm panel (DSF); conditions: Compound concentration 20.0 uM
# [5] = molecular target: 5-hydroxytryptamine receptor 5A (Homo sapiens) (UniProt P47898); conditions: Compound concentration 10.0 uM
# [6] = molecular target: GABA-A receptor; anion channel (Rattus norvegicus) (UniProt O09028+P15431+P18506+P18508+P19969+P20236+P23574+P23576+P28471+P28473+P30191+P62813+P63079+P63138+Q91ZM7+Q9ES14); conditions: Compound concentration 10.0 uM
# [7] = molecular target: T1, Zinc finger and BTB domain-containing protein 11 (Homo sapiens) (UniProt O95625); conditions: SUD4, Compound concentration 1.0 uM
# T1 sequence (whole entry): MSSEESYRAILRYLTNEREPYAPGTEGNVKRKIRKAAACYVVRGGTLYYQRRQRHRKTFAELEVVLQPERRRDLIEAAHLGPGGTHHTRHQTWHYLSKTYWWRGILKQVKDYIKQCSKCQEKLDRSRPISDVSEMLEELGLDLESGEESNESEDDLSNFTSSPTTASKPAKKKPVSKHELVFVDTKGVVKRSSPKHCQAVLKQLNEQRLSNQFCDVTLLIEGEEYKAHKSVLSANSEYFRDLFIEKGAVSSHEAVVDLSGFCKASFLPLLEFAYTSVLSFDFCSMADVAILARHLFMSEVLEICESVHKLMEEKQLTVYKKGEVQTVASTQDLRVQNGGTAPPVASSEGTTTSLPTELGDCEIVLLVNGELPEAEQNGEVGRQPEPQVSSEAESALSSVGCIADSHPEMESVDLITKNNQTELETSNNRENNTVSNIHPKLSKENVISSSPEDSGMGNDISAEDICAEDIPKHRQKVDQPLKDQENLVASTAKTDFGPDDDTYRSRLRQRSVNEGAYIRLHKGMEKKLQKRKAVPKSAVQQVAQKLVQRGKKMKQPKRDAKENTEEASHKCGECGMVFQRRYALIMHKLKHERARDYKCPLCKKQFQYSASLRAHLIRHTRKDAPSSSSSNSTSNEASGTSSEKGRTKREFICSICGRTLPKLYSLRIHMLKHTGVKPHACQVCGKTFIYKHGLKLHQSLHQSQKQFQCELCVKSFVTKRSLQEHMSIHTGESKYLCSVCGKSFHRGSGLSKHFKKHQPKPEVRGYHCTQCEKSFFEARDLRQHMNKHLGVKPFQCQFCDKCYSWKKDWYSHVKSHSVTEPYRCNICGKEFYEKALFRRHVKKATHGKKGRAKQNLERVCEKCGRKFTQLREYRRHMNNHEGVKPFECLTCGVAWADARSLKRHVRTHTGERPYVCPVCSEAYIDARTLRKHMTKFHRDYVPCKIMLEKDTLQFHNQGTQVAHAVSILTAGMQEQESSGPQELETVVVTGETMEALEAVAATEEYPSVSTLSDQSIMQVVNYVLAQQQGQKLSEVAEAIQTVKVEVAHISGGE
# [8] = molecular target: Zinc finger and BTB domain-containing protein 14 (Homo sapiens) (UniProt O43829); conditions: SUD4, Compound concentration 1.0 uM
# [9] = molecular target: Homeodomain-interacting protein kinase 2 (Homo sapiens) (UniProt Q9H2X6); assay: HIPK2 SGC Tm panel (DSF); conditions: Compound concentration 20.0 uM
# [10] = molecular target: STE20/SPS1-related proline-alanine-rich protein kinase (Homo sapiens) (UniProt Q9UEW8); assay: STK39 SGC Tm panel (DSF); conditions: Compound concentration 20.0 uM
# [11] = molecular target: Aurora kinase A (Homo sapiens) (UniProt O14965); assay: STK6 SGC Tm panel (DSF); conditions: Compound concentration 20.0 uM
# [12] = molecular target: Delta-type opioid receptor (Homo sapiens) (UniProt P41143); conditions: Compound concentration 10.0 uM
# [13] = molecular target: T2, Zinc finger protein 131 (Homo sapiens) (UniProt P52739); conditions: SUD4, Compound concentration 1.0 uM
# T2 sequence (whole entry): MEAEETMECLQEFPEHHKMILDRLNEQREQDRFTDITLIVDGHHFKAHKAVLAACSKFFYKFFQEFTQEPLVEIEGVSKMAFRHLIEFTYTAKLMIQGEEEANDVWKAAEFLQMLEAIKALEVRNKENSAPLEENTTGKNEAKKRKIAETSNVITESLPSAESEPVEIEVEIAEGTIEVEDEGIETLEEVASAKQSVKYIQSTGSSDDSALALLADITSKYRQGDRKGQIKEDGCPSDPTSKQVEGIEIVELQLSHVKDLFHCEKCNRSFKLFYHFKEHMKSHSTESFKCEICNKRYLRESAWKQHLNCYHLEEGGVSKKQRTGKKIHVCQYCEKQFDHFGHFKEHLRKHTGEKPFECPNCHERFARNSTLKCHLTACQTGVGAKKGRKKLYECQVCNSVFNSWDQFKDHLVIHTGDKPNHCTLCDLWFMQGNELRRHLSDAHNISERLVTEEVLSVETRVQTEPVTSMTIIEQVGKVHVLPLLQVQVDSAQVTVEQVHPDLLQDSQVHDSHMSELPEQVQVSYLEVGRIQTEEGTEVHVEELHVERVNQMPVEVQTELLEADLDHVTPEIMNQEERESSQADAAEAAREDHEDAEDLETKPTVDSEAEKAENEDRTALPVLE
# [14] = molecular target: Dual specificity mitogen-activated protein kinase kinase 7 (Homo sapiens) (UniProt O14733); assay: MAP2K7 SGC Tm panel (DSF); conditions: Compound concentration 20.0 uM
# [15] = molecular target: AP2-associated protein kinase 1 (Homo sapiens) (UniProt Q2M2I8); assay: AAK1 SGC Tm panel (DSF); conditions: Compound concentration 20.0 uM
# [16] = molecular target: Adenosine receptor A2a (Homo sapiens) (UniProt P29274); assay: GPCRScan assay: inhibition of A2A; conditions: Compound concentration 10.0 uM
# [17] = molecular target: Serine/threonine-protein kinase Nek1 (Homo sapiens) (UniProt Q96PY6); assay: NEK1 SGC Tm panel (DSF); conditions: Compound concentration 20.0 uM
# [18] = molecular target: Muscarinic acetylcholine receptor M3 (Homo sapiens) (UniProt P20309); conditions: Compound concentration 10.0 uM
# [19] = molecular target: Tyrosine-protein kinase ABL1 (Homo sapiens) (UniProt P00519); assay: ABL1 SGC Tm panel (DSF); conditions: Compound concentration 20.0 uM
# Histamine H3 receptor = Histamine H3 receptor (Homo sapiens, UniProt Q9Y5N1); assay: GPCRScan assay: inhibition of H3; design: radioligand conc. used [nm] 0.5 – 1.0, parental cells HEK Flp-In
# [20] = molecular target: Dual specificity tyrosine-phosphorylation-regulated kinase 2 (Homo sapiens) (UniProt Q92630); assay: DYRK2 SGC Tm panel (DSF); conditions: Compound concentration 20.0 uM
# Chain of Dual specificity tyrosine-phosphorylation-regulated kinase 2 (Homo sapiens) (Q92630 whole entry): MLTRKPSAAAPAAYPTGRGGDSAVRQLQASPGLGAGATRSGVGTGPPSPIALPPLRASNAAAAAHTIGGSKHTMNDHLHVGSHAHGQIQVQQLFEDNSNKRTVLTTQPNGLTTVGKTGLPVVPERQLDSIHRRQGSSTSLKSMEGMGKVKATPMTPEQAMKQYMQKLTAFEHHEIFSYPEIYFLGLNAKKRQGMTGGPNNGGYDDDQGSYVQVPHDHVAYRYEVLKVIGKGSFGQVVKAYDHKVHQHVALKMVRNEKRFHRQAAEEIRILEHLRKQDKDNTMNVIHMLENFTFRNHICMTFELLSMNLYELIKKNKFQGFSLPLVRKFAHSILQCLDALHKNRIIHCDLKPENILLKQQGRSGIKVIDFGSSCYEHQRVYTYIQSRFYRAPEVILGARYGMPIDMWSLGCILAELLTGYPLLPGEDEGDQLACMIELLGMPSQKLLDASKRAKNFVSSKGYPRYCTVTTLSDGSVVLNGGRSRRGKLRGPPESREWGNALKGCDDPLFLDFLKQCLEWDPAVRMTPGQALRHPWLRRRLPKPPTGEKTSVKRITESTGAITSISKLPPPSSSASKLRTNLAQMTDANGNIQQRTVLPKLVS
# Chain of Histamine H3 receptor (Q9Y5N1 whole entry): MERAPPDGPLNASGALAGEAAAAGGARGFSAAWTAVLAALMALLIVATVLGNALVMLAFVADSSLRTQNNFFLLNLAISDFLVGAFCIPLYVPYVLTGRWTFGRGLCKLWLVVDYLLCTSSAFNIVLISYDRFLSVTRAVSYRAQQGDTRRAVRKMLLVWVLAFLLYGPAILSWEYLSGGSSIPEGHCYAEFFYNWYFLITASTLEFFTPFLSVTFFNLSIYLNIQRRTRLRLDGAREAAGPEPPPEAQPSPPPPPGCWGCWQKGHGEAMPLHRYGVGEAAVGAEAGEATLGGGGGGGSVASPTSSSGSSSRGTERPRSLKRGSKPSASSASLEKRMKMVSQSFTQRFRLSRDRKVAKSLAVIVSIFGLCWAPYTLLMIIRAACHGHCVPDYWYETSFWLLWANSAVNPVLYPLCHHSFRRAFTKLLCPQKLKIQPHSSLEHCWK
# Chain of Delta-type opioid receptor (Homo sapiens) (P41143 whole entry): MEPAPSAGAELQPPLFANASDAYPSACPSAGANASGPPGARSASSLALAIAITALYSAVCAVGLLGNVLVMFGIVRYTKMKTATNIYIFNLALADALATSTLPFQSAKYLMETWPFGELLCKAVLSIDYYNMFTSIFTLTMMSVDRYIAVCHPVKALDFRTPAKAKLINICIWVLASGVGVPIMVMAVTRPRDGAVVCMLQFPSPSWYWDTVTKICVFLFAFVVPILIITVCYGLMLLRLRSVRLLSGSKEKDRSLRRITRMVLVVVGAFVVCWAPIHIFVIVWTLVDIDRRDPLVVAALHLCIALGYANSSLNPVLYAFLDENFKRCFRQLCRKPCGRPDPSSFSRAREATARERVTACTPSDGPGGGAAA
# Chain of Zinc finger and BTB domain-containing protein 14 (Homo sapiens) (O43829 whole entry, the tested form may be a part): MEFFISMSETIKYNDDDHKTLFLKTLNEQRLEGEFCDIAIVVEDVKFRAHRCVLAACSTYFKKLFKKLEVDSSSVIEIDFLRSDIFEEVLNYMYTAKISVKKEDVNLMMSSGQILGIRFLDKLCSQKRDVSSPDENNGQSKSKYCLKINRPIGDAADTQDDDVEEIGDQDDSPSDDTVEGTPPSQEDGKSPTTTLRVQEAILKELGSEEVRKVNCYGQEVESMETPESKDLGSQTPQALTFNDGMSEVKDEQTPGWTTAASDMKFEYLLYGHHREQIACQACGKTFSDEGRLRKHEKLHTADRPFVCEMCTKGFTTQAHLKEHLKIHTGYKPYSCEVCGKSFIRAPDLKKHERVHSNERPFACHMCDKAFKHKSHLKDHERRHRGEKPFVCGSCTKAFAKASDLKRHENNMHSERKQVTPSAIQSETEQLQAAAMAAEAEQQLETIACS
# Chain of Homeodomain-interacting protein kinase 2 (Homo sapiens) (Q9H2X6 whole entry, looked up): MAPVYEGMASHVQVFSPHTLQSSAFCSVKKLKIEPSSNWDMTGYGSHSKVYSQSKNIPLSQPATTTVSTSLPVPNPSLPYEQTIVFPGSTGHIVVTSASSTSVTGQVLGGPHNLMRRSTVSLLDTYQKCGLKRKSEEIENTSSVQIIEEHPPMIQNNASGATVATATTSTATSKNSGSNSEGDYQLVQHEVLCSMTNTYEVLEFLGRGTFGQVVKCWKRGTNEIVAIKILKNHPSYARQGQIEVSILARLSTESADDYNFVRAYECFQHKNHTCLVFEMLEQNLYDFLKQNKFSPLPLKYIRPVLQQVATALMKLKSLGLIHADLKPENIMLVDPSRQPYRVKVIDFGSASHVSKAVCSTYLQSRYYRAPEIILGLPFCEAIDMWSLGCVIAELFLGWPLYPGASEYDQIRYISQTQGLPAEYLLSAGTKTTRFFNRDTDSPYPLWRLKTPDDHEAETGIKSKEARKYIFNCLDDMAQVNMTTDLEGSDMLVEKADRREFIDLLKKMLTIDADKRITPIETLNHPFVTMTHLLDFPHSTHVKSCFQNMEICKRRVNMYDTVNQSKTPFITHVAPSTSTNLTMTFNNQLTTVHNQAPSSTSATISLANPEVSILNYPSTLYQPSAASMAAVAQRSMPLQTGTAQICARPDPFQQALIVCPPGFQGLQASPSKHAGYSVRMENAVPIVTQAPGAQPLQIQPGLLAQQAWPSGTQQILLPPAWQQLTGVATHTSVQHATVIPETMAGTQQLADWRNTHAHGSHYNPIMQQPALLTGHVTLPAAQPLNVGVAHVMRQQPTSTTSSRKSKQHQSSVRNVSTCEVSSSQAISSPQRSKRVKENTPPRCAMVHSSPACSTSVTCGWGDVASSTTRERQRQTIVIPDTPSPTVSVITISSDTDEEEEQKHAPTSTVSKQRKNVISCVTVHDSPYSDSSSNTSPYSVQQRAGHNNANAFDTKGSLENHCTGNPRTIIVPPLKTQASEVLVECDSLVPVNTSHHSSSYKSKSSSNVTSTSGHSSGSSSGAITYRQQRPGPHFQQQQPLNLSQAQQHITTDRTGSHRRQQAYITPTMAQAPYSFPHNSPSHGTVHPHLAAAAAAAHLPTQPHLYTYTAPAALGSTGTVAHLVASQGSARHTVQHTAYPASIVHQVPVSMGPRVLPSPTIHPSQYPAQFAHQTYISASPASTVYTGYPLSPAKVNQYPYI
# Chain of Muscarinic acetylcholine receptor M3 (Homo sapiens) (P20309 whole entry, looked up): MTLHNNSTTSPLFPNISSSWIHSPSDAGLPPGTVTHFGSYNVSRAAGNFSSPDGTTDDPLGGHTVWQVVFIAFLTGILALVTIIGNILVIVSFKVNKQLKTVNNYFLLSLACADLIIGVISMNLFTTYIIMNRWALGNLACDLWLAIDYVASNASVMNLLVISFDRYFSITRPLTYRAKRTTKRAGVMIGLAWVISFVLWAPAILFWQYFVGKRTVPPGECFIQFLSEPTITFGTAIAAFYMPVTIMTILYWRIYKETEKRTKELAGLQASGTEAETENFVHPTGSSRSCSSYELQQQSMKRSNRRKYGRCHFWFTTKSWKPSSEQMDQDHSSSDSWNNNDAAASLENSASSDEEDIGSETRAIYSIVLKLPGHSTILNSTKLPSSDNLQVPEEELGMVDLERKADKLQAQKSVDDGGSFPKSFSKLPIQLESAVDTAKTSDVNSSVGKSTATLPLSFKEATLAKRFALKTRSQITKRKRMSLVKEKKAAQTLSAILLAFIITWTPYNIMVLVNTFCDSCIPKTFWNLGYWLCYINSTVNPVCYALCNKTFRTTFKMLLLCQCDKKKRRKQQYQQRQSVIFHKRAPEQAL
# Chain of Adenosine receptor A2a (Homo sapiens) (P29274 whole entry): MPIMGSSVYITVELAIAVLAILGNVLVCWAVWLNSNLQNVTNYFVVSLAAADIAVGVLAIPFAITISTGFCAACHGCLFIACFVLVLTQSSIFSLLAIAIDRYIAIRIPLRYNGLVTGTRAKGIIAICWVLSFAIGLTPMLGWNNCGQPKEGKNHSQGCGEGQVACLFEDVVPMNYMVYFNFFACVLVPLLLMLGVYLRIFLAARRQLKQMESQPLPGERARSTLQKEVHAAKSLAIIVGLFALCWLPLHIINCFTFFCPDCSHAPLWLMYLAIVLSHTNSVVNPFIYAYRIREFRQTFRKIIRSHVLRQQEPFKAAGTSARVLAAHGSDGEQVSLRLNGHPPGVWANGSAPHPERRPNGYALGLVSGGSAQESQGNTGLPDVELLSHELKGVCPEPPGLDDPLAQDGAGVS
# Chain of Dual specificity mitogen-activated protein kinase kinase 7 (Homo sapiens) (O14733 whole entry): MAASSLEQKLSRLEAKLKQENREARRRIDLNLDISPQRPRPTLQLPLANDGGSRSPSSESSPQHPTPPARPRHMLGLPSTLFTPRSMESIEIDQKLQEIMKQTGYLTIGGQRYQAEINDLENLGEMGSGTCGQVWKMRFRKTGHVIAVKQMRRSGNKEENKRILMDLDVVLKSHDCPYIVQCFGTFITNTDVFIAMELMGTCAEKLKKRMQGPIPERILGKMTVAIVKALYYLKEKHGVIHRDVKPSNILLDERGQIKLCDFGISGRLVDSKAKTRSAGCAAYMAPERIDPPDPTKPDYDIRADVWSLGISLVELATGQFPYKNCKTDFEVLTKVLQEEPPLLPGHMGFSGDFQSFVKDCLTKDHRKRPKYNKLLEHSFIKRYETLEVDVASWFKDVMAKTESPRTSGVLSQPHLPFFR
# Chain of Cyclin-dependent kinase 16 (Homo sapiens) (Q00536 whole entry): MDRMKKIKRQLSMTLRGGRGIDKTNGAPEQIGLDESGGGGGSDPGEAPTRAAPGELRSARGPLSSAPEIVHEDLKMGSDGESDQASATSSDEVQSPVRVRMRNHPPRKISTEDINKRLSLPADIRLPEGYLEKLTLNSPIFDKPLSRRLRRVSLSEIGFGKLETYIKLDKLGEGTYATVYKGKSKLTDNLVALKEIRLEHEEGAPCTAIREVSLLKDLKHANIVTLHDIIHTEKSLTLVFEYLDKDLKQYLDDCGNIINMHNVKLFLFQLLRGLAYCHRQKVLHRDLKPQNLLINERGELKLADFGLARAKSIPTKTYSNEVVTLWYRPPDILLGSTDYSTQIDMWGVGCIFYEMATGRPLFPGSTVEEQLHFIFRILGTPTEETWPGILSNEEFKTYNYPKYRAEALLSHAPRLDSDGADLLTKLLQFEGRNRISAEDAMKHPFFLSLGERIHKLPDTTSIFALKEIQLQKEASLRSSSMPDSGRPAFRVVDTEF
smiles,measurement,setting,value
C[C@@H]1CN(c2ncc(Cl)c(Nc3ccc4c(c3)n(CCC(C)(C)O)c(=O)n4C)n2)C[C@H](C)C1(F)F,Tm,[1],52 °C
same,Tm,[2],43 °C
same,inhibition,[3],-0.79%
same,Tm,[4],47 °C
same,inhibition,[5],13.2%
same,inhibition,[6],7.06%
same,LogFC,[7],-0.0504
same,LogFC,[8],0.0306
same,Tm,[9],43 °C
same,Tm,[10],37 °C
same,Tm,[11],45 °C
same,inhibition,[12],18.1%
same,LogFC,[13],-0.044
same,Tm,[14],44 °C
same,Tm,[15],47 °C
same,inhibition,[16],-3.49%
same,Tm,[17],47 °C
same,inhibition,[18],12%
same,Tm,[19],46 °C
same,Ki,Histamine H3 receptor; read-out: Ki,2.33 µM
same,Ki,Histamine H3 receptor; read-out: pKi (converted),2.04 µM
same,Tm,[20],46 °C
